The target in assay [1] is T1, β1-receptors of the heart (Canis lupus familiaris, UniProt P79148).
T1 construct: from tissue; host or cells: heart (left ventricle) of anaesthetised mongrel dogs, in vivo
In words: Inhibition of isoproterenol-induced increase in rate of pressure rise (Dp/dt max.) in left ventricle of anaesthetised dogs (β1-receptor inhibition). The class given is in vivo, mongrel dogs. The note with it: for ED50: dog, iv, read-out: β1-receptor inhibition ED 50; for Quotient: ED 50 of β2-receptor inhibition / ED 50 of β1-receptor inhibition / Relative quotient, on basis of reference substance = 1 / Relative β1-receptor inhibition (reference substance = 100): dogs; for Quotient: ED 50 of β2-receptor inhibition / ED 50 of β1-receptor inhibition: cardioselectivity, higher = better; for Relative quotient, on basis of reference substance = 1: relative cardioselectivity factor; for Relative β1-receptor inhibition (reference substance = 100): relative ED 50, lower = more active. The procedure: (§1) The blocking action of the compounds according to the invention on the β1-receptors of the heart and on the β2-receptors of the cardiovascular system was investigated as follows: the blood pressure in the left-hand ventricle was measured on mongrel dogs of both sexes under an anaesthesia by Chloralose-urethane-morphine and the pressure signal was continuously differentiated by means of an analogue computer (BRUSH Instruments, Cleveland/Ohio) and, inter alia, the rate of pressure increase (Dp/dt) was recorded. In addition, the perfusion of a femoral artery was measured by means of an electromagnetic flow-meter (Model […] of Messrs. Statham) and the perfusion was recorded in ml/minute. […] DUNLOP and […]: Selective blockade of adrenoceptive beta-receptors in the heart. Brit. J. Pharmac. Chemother. (1968) 32, 201-218). […] The higher this quotient is, the better the cardioselective action.

Assay [2] addresses T2, β2-receptors of the cardiovascular system (Canis lupus familiaris, UniProt P54833).
T2 construct: from tissue; host or cells: femoral artery vascular bed of anaesthetised mongrel dogs, in vivo
Nature of the assay: Inhibition of isoproterenol-induced alteration of peripheral (femoral artery) perfusion in anaesthetised dogs (β2-receptor inhibition). The class given is in vivo, mongrel dogs. The note with it: for ED50: dog, iv, read-out: β2-receptor inhibition ED 50; for Relative β2-receptor inhibition (reference substance = 100): relative ED 50, dogs. The procedure: as §1

The subject of assay [3] is cardiac β1-receptors. In words: Inhibition of isoproterenol-induced increase in heart rate in anaesthetized guinea pigs (β1-receptor inhibition). The class given is in vivo. The note with it: for β1-receptor inhibition, parameter: heart rate response to isoproterenol: ED-50: i.v., guinea pigs anaesthetized with urethane, isoproterenol 0.5 gamma/animal. The procedure: The isoproterenol-induced increase in heart rate in anaesthetized animals represents mainly the response of the cardiac β1-receptors. The dose of the antagonists (mg/kg i.v.) which inhibits this response of isoproterenol (0.5 gamma/animal) in guinea pigs, anaesthetized with urethane, by 50% : ED-50 was determined.

Assay [4] concerns the target T3, tracheal β2-receptors (Cavia porcellus, UniProt Q8K4Z4).
T3 construct: isolated tracheal chain of guinea pigs; from tissue; host or cells: isolated guinea pig tracheal chain
In words: Inhibition of isoproterenol-induced relaxation of contracted isolated tracheal chain (β2-receptor inhibition). Details: species or system guinea pigs. The procedure:
The isoproterenol-induced relaxation of contracted isolated tracheal chain of guinea pigs represents the response of the tracheal β2-receptors. The bath concentrations of the antagonists which reduce the isoproterenol effects by 50% were determined: ED-50 : g/ml bath.

The source of these data is patent US4066768A, “Derivatives of 1-phenoxy-3-amino-propan-2-ol” (Cassella Farbwerke Mainkur Aktiengesellschaft, priority 1973, dated 1978).

The structures appear in SMILES notation.

T2 sequence (P54833 whole entry): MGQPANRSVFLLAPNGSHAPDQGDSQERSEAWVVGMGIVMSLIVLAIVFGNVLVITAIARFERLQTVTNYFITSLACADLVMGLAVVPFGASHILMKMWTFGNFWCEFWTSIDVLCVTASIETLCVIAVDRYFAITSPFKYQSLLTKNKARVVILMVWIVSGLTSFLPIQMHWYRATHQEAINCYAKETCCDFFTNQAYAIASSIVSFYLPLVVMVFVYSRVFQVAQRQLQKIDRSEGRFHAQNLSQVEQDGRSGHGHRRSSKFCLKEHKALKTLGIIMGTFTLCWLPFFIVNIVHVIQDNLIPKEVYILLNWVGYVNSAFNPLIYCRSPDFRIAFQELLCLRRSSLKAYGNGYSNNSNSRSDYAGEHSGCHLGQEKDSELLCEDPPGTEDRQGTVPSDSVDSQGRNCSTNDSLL
T1 sequence (P79148 whole entry): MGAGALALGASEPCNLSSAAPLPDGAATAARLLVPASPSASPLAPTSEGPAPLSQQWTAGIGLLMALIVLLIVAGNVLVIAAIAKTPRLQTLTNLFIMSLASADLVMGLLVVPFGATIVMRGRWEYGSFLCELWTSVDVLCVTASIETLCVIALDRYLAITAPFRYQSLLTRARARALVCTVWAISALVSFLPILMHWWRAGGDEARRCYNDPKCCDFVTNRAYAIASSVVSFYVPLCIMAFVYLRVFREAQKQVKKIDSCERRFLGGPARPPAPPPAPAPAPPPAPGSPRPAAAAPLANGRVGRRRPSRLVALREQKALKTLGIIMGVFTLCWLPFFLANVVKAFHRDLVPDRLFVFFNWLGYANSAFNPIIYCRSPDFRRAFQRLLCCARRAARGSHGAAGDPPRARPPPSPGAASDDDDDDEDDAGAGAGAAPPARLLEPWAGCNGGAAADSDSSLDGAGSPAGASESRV
T3 sequence (Q8K4Z4 whole entry): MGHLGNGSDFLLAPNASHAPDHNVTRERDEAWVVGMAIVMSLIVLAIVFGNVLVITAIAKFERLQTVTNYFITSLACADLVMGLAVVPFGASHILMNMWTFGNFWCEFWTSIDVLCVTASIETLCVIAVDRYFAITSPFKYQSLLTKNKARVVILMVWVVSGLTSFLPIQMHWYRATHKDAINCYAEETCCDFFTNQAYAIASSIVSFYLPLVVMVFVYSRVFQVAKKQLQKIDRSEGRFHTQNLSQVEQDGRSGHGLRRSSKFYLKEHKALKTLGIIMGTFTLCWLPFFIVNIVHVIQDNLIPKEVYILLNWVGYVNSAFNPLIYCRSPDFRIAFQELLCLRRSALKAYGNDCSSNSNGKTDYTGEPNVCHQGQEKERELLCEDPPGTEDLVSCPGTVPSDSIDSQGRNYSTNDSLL

Take `Cc1ccc(C(O)CC(C)NCC(O)COc2ccc(OCCO)cc2)cn1` (centres unmarked) [1-(-p-[2-Hydroxy-ethoxy]-henoxy)-3-(1-[2-methyl-pyridyl-5]-1-hydroxy-butyl(3)-amino)-propan-2-ol]: in assay [1], the ED50 was determined as 0.073 mg/kg; the “Quotient: ED 50 of β2-receptor inhibition / ED 50 of β1-receptor inhibition” value stood at 112; the “Relative quotient, on basis of reference substance = 1” value (“Relative quotient, on basis” below) was 1; the “Relative β1-receptor inhibition (reference substance = 100)” value (“Relative β1-receptor inhibition” for short) is recorded as 30.7. For the same compound, in assay [2], the ED50 came out at 8.14 mg/kg and the “Relative β2-receptor inhibition (reference substance = 100)” value (“Relative β2-receptor inhibition” for short) was 30.7.

Consider `C=CCNC(=O)Nc1ccc(OCC(O)CNC(C)CC(O)c2cnc(C)nc2C)cc1` (centres unmarked) [1-(p-Allylureido-phenoxy)-3-(1-[2,4-dimethyl-pyrimidyl-5]-1-hydroxy-butyl(3)-amino)-propan-2-ol], for which, in assay [1], the ED50 was 0.019 mg/kg and the “Relative β1-receptor inhibition” value came out at 7.9.

Turning to `Cc1ncc(C(O)CC(C)NCC(O)COc2ccc(NC(=O)NC3CCCCC3)cc2)c(C)n1` (centres unmarked) [1-(p-Cyclohexylureido-phenoxy)-3-(1-[2,4-dimethyl-pyrimidyl-5] -1-hydroxy-butyl(3)-amino)-propan-2-ol], in assay [1], the ED50 was 0.011 mg/kg; the “Quotient: ED 50 of β2-receptor inhibition / ED 50 of β1-receptor inhibition” value is recorded as 128; the “Relative quotient, on basis” value is reported as 1.1; the “Relative β1-receptor inhibition” value stood at 4.6. Besides, in assay [2], the ED50 was 1.38 mg/kg and the “Relative β2-receptor inhibition” value turned out to be 5.2.

Turning to `Cc1ccc(C(O)CC(C)NCC(O)COc2ccc(NC(=O)NC3CCCCC3)cc2)cn1` (centres unmarked) [1-(p-Cyclohexylureido-phenoxy)-3-(1-[2-methyl-pyridyl-5]-1-hydroxy-butyl(3)-amino)-propan-2-ol], in assay [1], the ED50 turned out to be 0.006 mg/kg; the “Quotient: ED 50 of β2-receptor inhibition / ED 50 of β1-receptor inhibition” value worked out at 245; the “Relative quotient, on basis” value is listed as 2.4; the “Relative β1-receptor inhibition” value was 2.5. In addition, in assay [2], the ED50 came to 1.57 mg/kg and the “Relative β2-receptor inhibition” value came out at 5.9.

Take `CC(CC(O)c1cccnc1)NCC(O)COc1ccc(NC(=O)NC2CCCCC2)cc1` (centres unmarked) [1-(p-Cyclohexylureidophenoxy)-3-(1-hydroxy-1-pyridyl-(3)-butyl3-amino)-propan-2-ol]: in assay [1], the ED50 came out at 0.003 mg/kg; the “Quotient: ED 50 of β2-receptor inhibition / ED 50 of β1-receptor inhibition” value was determined as 409; the “Relative quotient, on basis” value was determined as 2.9; the “Relative β1-receptor inhibition” value was 1.3. In assay [2], the ED50 stood at 1.02 mg/kg and the “Relative β2-receptor inhibition” value was found to be 3.8.

For `CCOCCOc1ccc(OCC(O)CNC(C)CC(O)c2cccnc2)cc1` (centres unmarked) [1-(p-Ethoxyethoxy-phenoxy)-3-(1-[pyridyl-3]-1-hydroxy-butyl(3)-amino)-propan-2-ol], in assay [1], the ED50 amounted to 0.009 mg/kg; the “Quotient: ED 50 of β2-receptor inhibition / ED 50 of β1-receptor inhibition” value came out at 296; the “Relative quotient, on basis” value came out at 2.7; the “Relative β1-receptor inhibition” value amounted to 3.8. Besides, in assay [2], the ED50 was 2.76 mg/kg and the “Relative β2-receptor inhibition” value was determined as 10.1.

Turning to `CCOCc1ccc(OCC(O)CNC(C)CC(O)c2cnc(C)nc2C)cc1` (centres unmarked) [1-(p-Ethoxymethylene-phenoxy)-3-(1-[2,4-dimethyl-pyrimidyl-5]-1-hydroxy-butyl(3)-amino)-propan-2-ol], in assay [1], the ED50 worked out at 0.019 mg/kg; the “Quotient: ED 50 of β2-receptor inhibition / ED 50 of β1-receptor inhibition” value was 144; the “Relative quotient, on basis” value was 1.4; the “Relative β1-receptor inhibition” value came out at 7.9. Besides, in assay [2], the ED50 was found to be 2.88 mg/kg and the “Relative β2-receptor inhibition” value is listed as 10.7.

`CCOCc1ccc(OCC(O)CNC(C)CC(O)c2cccnc2)cc1` (centres unmarked) [1-(p-Ethoxymethylene-phenoxy)-3-(1-[pyridyl-3]-1-hydroxy-butyl(3)-amino)-propan-2-ol]: in assay [1], the ED50 was 0.01 mg/kg and the “Relative β1-receptor inhibition” value was found to be 4.2.

For `CCNC(=O)Nc1ccc(OCC(O)CNC(C)CC(O)c2cnc(C)nc2C)cc1` (centres unmarked) [1-(p-Ethylureido-phenoxy)-3-(1-[2,4-dimethyl-pyrimidyl-5-]-1-hydroxy-butyl(3)-amino)-propan-2-ol], in assay [1], the ED50 worked out at 0.093 mg/kg; the “Quotient: ED 50 of β2-receptor inhibition / ED 50 of β1-receptor inhibition” value worked out at 137; the “Relative quotient, on basis” value is reported as 1.2; the “Relative β1-receptor inhibition” value was found to be 39.1. In assay [2], the ED50 turned out to be 12.8 mg/kg and the “Relative β2-receptor inhibition” value worked out at 48.3.

As for `CCNC(=O)Nc1ccc(OCC(O)CNC(C)CC(O)c2cccnc2)cc1` (centres unmarked) [1-(p-Ethylureido-phenoxy)-3-(1-[pyridyl-3]-1-hydroxy-butyl(3)-amino)-propan-2-ol], in assay [1], the ED50 stood at 0.013 mg/kg and the “Relative β1-receptor inhibition” value was 5.5.

On to `Cc1ncc(C(O)CC(C)NCC(O)COc2ccc(NC(=O)NC(C)C)cc2)c(C)n1` (centres unmarked) [1-(p-Isopropylureido- -phenoxy)-3-(1-[2,4-dimethyl-pyrimidyl-5]-1-hydroxy-butyl(3)-amino)-propan-2-ol], for which, in assay [1], the ED50 was 0.022 mg/kg; the “Quotient: ED 50 of β2-receptor inhibition / ED 50 of β1-receptor inhibition” value came to 124; the “Relative quotient, on basis” value was determined as 1.1; the “Relative β1-receptor inhibition” value amounted to 9.2. In addition, in assay [2], the ED50 came to 2.71 mg/kg and the “Relative β2-receptor inhibition” value worked out at 10.2.

`COCCCCOc1ccc(OCC(O)CNC(C)CC(O)c2cnc(C)nc2C)cc1` (centres unmarked) [1-(p-Methoxybutoxy-phenoxy)-3-(1-[2,4-dimethyl-pyrimidyl-5]-hydroxy-butyl(3)-amino)-propan-2-ol]: in assay [1], the ED50 worked out at 0.089 mg/kg; the “Quotient: ED 50 of β2-receptor inhibition / ED 50 of β1-receptor inhibition” value worked out at 176; the “Relative quotient, on basis” value is 1.6; the “Relative β1-receptor inhibition” value is 37.4. Further, in assay [2], the ED50 turned out to be 16 mg/kg and the “Relative β2-receptor inhibition” value worked out at 58.8.

Regarding `CCCOCCOc1ccc(OCC(O)CNC(C)CC(O)c2ccc(C)nc2)cc1` (centres unmarked) [1-(p-[2-n-propoxy-ethoxy]-phenoxy)-3-(1-[2-methyl-pyridyl-5]-1-hydroxy-butyl(3)-amino)-propan-2-ol], in assay [3] (heart rate, guinea pigs), the “Relative β1-receptor inhibition” value was determined as 3.39. Further, the “β1-receptor inhibition, parameter: heart rate response to isoproterenol: ED-50” value in assay [3] is on record as 0.177 mg/kg. Moreover, in assay [1], the ED50 is 0.035 mg/kg; the “Quotient: ED 50 of β2-receptor inhibition / ED 50 of β1-receptor inhibition” value is listed as 146; the “Relative quotient, on basis” value amounted to 1.3; the “Relative β1-receptor inhibition” value is on record as 14.7. In assay [2], the ED50 came to 5.1 mg/kg and the “Relative β2-receptor inhibition” value stood at 19.2. Besides, the IC50 in assay [4] (bath concentration reducing isoproterenol effects by 50%, guinea pig trachea, read-out: β2-receptor inhibition, parameter: isolated tracheal chain: ED-50 (converted)) was 6.94 µM. Besides, the “Relative β2-receptor inhibition” value in assay [4] (isolated tracheal chain, guinea pigs) is recorded as 7.7.

For the compound `CC(=O)Nc1ccc(OCC(O)CNC(C)C)cc1` (centres unmarked) [4-(2-Hydroxy-3-isopropylamino-propoxy)-acetanilide, reference compound], the “β1-receptor inhibition, parameter: heart rate response to isoproterenol: ED-50” value in assay [3] is listed as 5.3 mg/kg.
